Measurements: patent US20240016901A1, “COMPOSITIONS AND METHODS FOR PREVENTING AND TREATING SARS-COV-2 INFECTION” (priority 2020, published 2024)
Like-named read-outs stand apart in the source and are kept apart here.

Assays:
SARS-CoV-2 [1] = assay: microbe, parasite or virus in culture; format: cell-based; details: for IC50: read-out: IC50 against SARS-CoV-2 infection
SigmaR2 = details: literature value (Diaz et al. 2012); cited from earlier work
SigmaR1 = details: read-out: SigmaR1 IC50; literature values (Moebius et al. 1997; Diaz et al. 2012); cited from earlier work
SARS-CoV-2 [2] = details: Gordon et al. 2020; cited from earlier work
[3] = Severe acute respiratory syndrome coronavirus 2, Huh-7
[4] = Severe acute respiratory syndrome coronavirus 2, Huh-7 cells, MOI 0.2, 10-point two-fold dilution dose response in triplicate
[5] = Severe acute respiratory syndrome coronavirus 2, Huh-7 cells

With `COc1cc(Nc2c(C#N)cnc3cc(OCCCN4CCN(C)CC4)c(OC)cc23)c(Cl)cc1Cl` [Bosutinib] the EC50 (SARS-CoV-2 [1]; [3]) was 28 nM.

With `C[C@@](Cc1ccc(O)c(O)c1)(NN)C(=O)O` [Carbidopa] the “exacerbation of SARS-CoV-2 infection” value (SARS-CoV-2 [1]; Huh-7 cells) was “exacerbate SARS-CoV-2 infection”.

`CC(C)N=c1cc2n(-c3ccc(Cl)cc3)c3ccccc3nc-2cc1Nc1ccc(Cl)cc1` [Clofazamine] gave an EC50 (SARS-CoV-2 [1]) of 105 nM.

In the case of `C=C1[C@H](CO)[C@@H](O)C[C@@H]1n1cnc2c(=O)[nH]c(N)nc21` [Entecavir], the EC50 (SARS-CoV-2 [1]; [4]) is reported as 201 nM.

Compound `Cc1cnc(Nc2ccc(OCCN3CCCC3)cc2)nc1Nc1cccc(S(=O)(=O)NC(C)(C)C)c1` [Fedratinib] has an EC50 (SARS-CoV-2 [1]; [4]) of 25 nM and an IC50 (SARS-CoV-2 [1]; [5]) of 25 nM.

`CCc1nc(C(N)=O)c(Nc2ccc(N3CCC(N4CCN(C)CC4)CC3)c(OC)c2)nc1NC1CCOCC1` [Gilteritinib] gave an EC50 (SARS-CoV-2 [1]; [4]) of 207 nM.

`O=C(NC1CCN(CCCCC2(C(=O)NCC(F)(F)F)c3ccccc3-c3ccccc32)CC1)c1ccccc1-c1ccc(C(F)(F)F)cc1` [Lomitapide] showed an EC50 (SARS-CoV-2 [1]; [4]) of 1580 nM.

With `CCN(CC)CCNC(=O)c1cc(Cl)c(N)cc1OC` [Metoclopramide] the “antiviral activity against SARS-CoV-2 (in words)” value (“antiviral activity … (in words)” below) (SARS-CoV-2 [1]; Huh-7 cells) was “dose dependent antiviral activity” and the EC50 (SARS-CoV-2 [1]; [4]) was 469 nM.

`O=C(Nc1ccc([N+](=O)[O-])cc1Cl)c1cc(Cl)ccc1O` [Niclosamide] showed an EC50 (SARS-CoV-2 [1]; [4]) of 142 nM.

`CCC(CC)COC(=O)[C@H](C)N[P@](=O)(OC[C@H]1O[C@@](C#N)(c2ccc3c(N)ncnn23)[C@H](O)[C@@H]1O)Oc1ccccc1` [Remdesivir] showed an EC50 (SARS-CoV-2 [1]; [3]) of 95 nM.

For `Cc1cc(OCCN2CCOCC2)nn1-c1ccc2ccccc2c1` [S1RA, 4-{2-[5-methyl-1-(naphthalen-2-yl)-1H-pyrazol-3-yloxy]ethyl}morpholine], the IC50 (SigmaR2) is listed as over 1000 nM, the cell toxicity (Huh-7 cells) is listed as “limited cell toxicity” and the EC50 (SARS-CoV-2 [1]; [4]) is listed as 222 nM. The IC50 (SARS-CoV-2 [1]; [5]) was 222 nM, the IC50 (SigmaR1) was 17 nM and the “antiviral activity in Vero-E6 cells” value (SARS-CoV-2 [2]) was “not observed”.

Work on `Nc1nc2nc[nH]c2c(=S)[nH]1` [Thioguanine] yielded an EC50 (SARS-CoV-2 [1]; [4]) of 232 nM.

Compound `COc1ccc(CCN(C)CCCC(C#N)(c2ccc(OC)c(OC)c2)C(C)C)cc1OC` (stereo not shown) [Verapamil] has an EC50 (SARS-CoV-2 [1]; [3]) of 458 nM.

In the case of `CC(NC(=O)[C@H](Cc1ccccc1)NC(=O)OCc1ccccc1)C(=O)CF` (stereo partly shown) [Z-FA-FMK], the EC50 (SARS-CoV-2 [1]) is reported as 107 nM and the “antiviral activity … (in words)” value (SARS-CoV-2 [1]; Huh-7 cells) is reported as “potent antiviral activity”.

For `CC(C)(C#N)c1cc(Cn2cncn2)cc(C(C)(C)C#N)c1` [anastrozole], the “exacerbation of SARS-CoV-2 infection” value (SARS-CoV-2 [1]; Huh-7 cells) was “exacerbate SARS-CoV-2 infection”.

In the case of `C[C@@H]1CCN(C(=O)CC#N)C[C@@H]1N(C)c1ncnc2[nH]ccc12` [tofacitinib], the “antiviral activity … (in words)” value (SARS-CoV-2 [1]; Huh-7 cells) is reported as “the latter was the only one active”.

For “transferrin: the protein transferrin (Sigma Aldrich, T2036)”, the “anti-SARS-CoV-2 activity, percentage of infected Huh-7 cells” value (SARS-CoV-2 [1]; Huh-7 cells, protein at 2.3 μM, FIG. 6E) was “devoid of any anti-SARS-CoV-2 activity”.
